Assay results reported in BindingDB's records for patent WO2022064009 (JANSSEN PHARMACEUTICA NV, 2022).

Target: CDK-activating kinase assembly factor MAT1/Cyclin-H/Cyclin-dependent kinase 7 (Homo sapiens, UniProt P50613)
Assay: n Vitro CDK7 (20 nM) Assay
Protocol: Compounds with potencies approaching the limit of detection of the assay (IC50 < 10 nM) were further assessed in a more sensitive fluorescence end-point assay. […] Absorbance at 340 nm was followed kinetically at an interval of 2 minutes for 8 hours.The assay was carried out with 100 μl reaction volume per well in a 384-well plate that was pre-spotted nanoliter volume of compounds by LabCyte Echo 555. Compound dilution plates were made by 2-fold (could vary upon necessity) dilution in DMSO for 11 concentrations plus a DMSO control of uninhibited reaction. 2x substrate and coupling reagent mixture was added to the assay plate followed by an addition of an equal volume of 40 nM CDK7/Cyclin H/MAT-1 complex. After mixing, assay plates were spun at 2000 rpm for 3 minutes and then transferred to the plate reader for data collection.

Chain of CDK-activating kinase assembly factor MAT1/Cyclin-H/Cyclin-dependent kinase 7 (P51946 whole entry): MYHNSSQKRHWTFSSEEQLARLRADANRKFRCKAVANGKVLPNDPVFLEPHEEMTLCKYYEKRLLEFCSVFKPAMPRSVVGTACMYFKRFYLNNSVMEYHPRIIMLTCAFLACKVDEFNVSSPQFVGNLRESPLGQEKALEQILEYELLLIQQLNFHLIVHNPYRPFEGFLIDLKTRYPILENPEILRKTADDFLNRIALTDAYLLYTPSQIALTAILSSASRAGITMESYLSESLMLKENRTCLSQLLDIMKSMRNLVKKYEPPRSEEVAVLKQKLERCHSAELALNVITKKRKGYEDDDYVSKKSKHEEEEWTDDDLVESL
Chain of CDK-activating kinase assembly factor MAT1/Cyclin-H/Cyclin-dependent kinase 7 (P50613 whole entry): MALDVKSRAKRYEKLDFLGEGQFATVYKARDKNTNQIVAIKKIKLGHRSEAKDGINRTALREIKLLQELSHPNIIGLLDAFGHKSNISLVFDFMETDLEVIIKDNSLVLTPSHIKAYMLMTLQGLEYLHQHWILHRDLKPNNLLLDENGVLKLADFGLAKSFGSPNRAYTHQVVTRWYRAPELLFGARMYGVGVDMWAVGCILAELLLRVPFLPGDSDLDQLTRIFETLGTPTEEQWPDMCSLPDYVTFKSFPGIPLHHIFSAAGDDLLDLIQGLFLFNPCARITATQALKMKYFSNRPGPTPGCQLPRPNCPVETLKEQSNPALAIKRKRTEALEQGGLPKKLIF
Chain of CDK-activating kinase assembly factor MAT1/Cyclin-H/Cyclin-dependent kinase 7 (P51948 whole entry, further chain): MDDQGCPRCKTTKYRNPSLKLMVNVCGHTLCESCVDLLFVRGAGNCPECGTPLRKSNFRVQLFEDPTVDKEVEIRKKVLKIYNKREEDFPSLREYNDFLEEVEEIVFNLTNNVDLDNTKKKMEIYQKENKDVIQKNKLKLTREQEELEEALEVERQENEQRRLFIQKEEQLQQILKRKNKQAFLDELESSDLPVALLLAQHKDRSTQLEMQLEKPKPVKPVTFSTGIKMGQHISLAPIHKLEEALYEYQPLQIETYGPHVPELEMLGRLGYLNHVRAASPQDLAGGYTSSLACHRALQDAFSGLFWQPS

Compound: C[C@@H]1Cc2cnc(NC3CCOCC3)nc2CN1C(=O)[C@H]1CCN(C2COC2)C[C@@H]1c1ccccc1 [WO2022064009, Compound 159]
- IC50: 575 nM
